Data taken from patent US20050208496A1, “Methods of testing for bronchial asthma or chronic obstructive pulmonary disease” (Genox Research, Inc., priority 2002, published 2005).
Read-outs that look alike come from different tables or passages of the source.

Test system: respiratory epithelial cells
[1] = HG-U95E, lot 1, Day 3, AI (head as in Table 18)
[2] = HG-U95E, lot 1, Day 7, AI (no head printed, inferred)
[3] = HG-U95E, lot 2, Day 3, AI (no head printed, inferred)

## IL-13: human IL-13 (Peprotech, Inc.) added to the medium at 50 ng/mL to stimulate respiratory epithelial cells
HG-U95A, lot 2, Day 7, AI
  CRYM (38285_at) expression change upon IL-13 stimulation: −3.5
  CSPG2 (38112_g_at) expression change upon IL-13 stimulation: −2.5
  DHCR24 (36658_at) expression change upon IL-13 stimulation: −4.3
  DSG3 (33693_at) expression change upon IL-13 stimulation: −2.2
  E48 (36284_at) expression change upon IL-13 stimulation: −5.6
  EPHX1 (38790_at) expression change upon IL-13 stimulation: −5.1
  FACL2 (40082_at) expression change upon IL-13 stimulation: −2
  FMO3 (40665_at) expression change upon IL-13 stimulation: −4.3
  GLUL (40522_at) expression change upon IL-13 stimulation: −4.4
  GPX3 (770_at) expression change upon IL-13 stimulation: −2.8
  GSTA4 (40508_at) expression change upon IL-13 stimulation: −5.4
  HGNC, keratinocyte transglutaminase gene (35947_at) expression change upon IL-13 stimulation: −3.2
  KIAA0878 (32215_1_at) expression change upon IL-13 stimulation: −2.7
  KIAA1055 (39400_at) expression change upon IL-13 stimulation: −3
  LCE (40943_at) expression change upon IL-13 stimulation: −3.7
  LGALS1 (33412_at) expression change upon IL-13 stimulation: −6.2
  SCYD1 (823_at) expression change upon IL-13 stimulation: −24.6
  SDC1 (38127_at) expression change upon IL-13 stimulation: −2.9
  TGFBI (1385_at) expression change upon IL-13 stimulation: −4.9
  TNFAIP2 (38631_at) expression change upon IL-13 stimulation: −3.7
HG-U95E, lot 1, Day 3, AI
  AA199856 (72960_s_at) expression change upon IL-13 stimulation: 4.3
  AI859144, KIAA1127 (77546_at) expression change upon IL-13 stimulation: 4.2
  BAL (69619_at) expression change upon IL-13 stimulation: 3.5
  EHF (8S090_at) expression change upon IL-13 stimulation: 2.3
  EPSTI1 (90421_at) expression change upon IL-13 stimulation: 7.2
  FLJ20989 (91420_at) expression change upon IL-13 stimulation: 14.8
  FLJ22833 (67329_at) expression change upon IL-13 stimulation: 3.1
  GCNT3 (77751_at) expression change upon IL-13 stimulation: 4.9
  MFHAS1 (87816_g_at) expression change upon IL-13 stimulation: 3
  RPL4 (80675_at) expression change upon IL-13 stimulation: 2.2
  SCYA26 (90189_at) expression change upon IL-13 stimulation: 26.3
[1]
  H70665 (67357_at) expression change upon IL-13 stimulation: 2.6
  SLC21A12 (87860_s_at) expression change upon IL-13 stimulation: 2.7
  TBLR1 (87125_at) expression change upon IL-13 stimulation: 2.8
HG-U95E, lot 1, Day 3, IMM
  AA199856 (72960_s_at) expression change upon IL-13 stimulation: 5.8
  AI859144, KIAA1127 (77546_at) expression change upon IL-13 stimulation: 6.1
  AW024819 (72867_at) expression change upon IL-13 stimulation: 4.2
  BAL (69619_at) expression change upon IL-13 stimulation: 3.1
  EPSTI1 (90421_at) expression change upon IL-13 stimulation: 9.9
  FLJ20989 (91420_at) expression change upon IL-13 stimulation: 13.5
  GCNT3 (77751_at) expression change upon IL-13 stimulation: 10.2
  RIG-1 (77749_at) expression change upon IL-13 stimulation: 3.9
  SCYA26 (90189_at) expression change upon IL-13 stimulation: 18.1
HG-U95E, lot 1, Day 3, IMM (head as in Table 18)
  EHF (85092_g_at) expression change upon IL-13 stimulation: 2.3
HG-U95E, lot 1, Day 7, AI
  AA199856 (72960_s_at) expression change upon IL-13 stimulation: 3.9
  AA806114 (80826_at) expression change upon IL-13 stimulation: 5.3
  AI803648 (89255_at) expression change upon IL-13 stimulation: 3.5
  AI859144, KIAA1127 (77546_at) expression change upon IL-13 stimulation: 2.6
  AI984061 (89834_at) expression change upon IL-13 stimulation: 2.7
  AW024819 (72867_at) expression change upon IL-13 stimulation: 2.6
  BCAT1 (72962_at) expression change upon IL-13 stimulation: 2.7
  CLDN1 (77660_at) expression change upon IL-13 stimulation: 2.6
  EHF (85092_g_at) expression change upon IL-13 stimulation: 2.1
  EPPK1 (86507_at) expression change upon IL-13 stimulation: 2.6
  FLJ20281 (83376_at) expression change upon IL-13 stimulation: 2.1
  FLJ20989 (91420_at) expression change upon IL-13 stimulation: 3.4
  FLJ21415 (89902_at) expression change upon IL-13 stimulation: 3.4
  FLJ22833 (67329_at) expression change upon IL-13 stimulation: 3.6
  GCNT3 (77751_at) expression change upon IL-13 stimulation: 2.5
  KIAA1685 (83541_at) expression change upon IL-13 stimulation: 2.6
  MASL1 (89651_at) expression change upon IL-13 stimulation: 4.3
  MFHAS1 (87816_g_at) expression change upon IL-13 stimulation: 3.4
  RIG-1 (77749_at) expression change upon IL-13 stimulation: 3.4
  SCYA26 (90189_at) expression change upon IL-13 stimulation: 30.4
  vipirin (84893_at) expression change upon IL-13 stimulation: 2.7
[2]
  NIFK (89320_at) expression change upon IL-13 stimulation: 2.9
  SLC1A5 (34759_at) expression change upon IL-13 stimulation: 2.5
  SLC17A5 (88617_at) expression change upon IL-13 stimulation: 2.7
  SLC21A12 (87860_s_at) expression change upon IL-13 stimulation: 2.7
  rab11-FIP1 (89338_at) expression change upon IL-13 stimulation: 4.4
HG-U95E, lot 1, Day 7, IMM
  AA199856 (72960_s_at) expression change upon IL-13 stimulation: 3.8
  AA806114 (80826_at) expression change upon IL-13 stimulation: 5.3
  AI803648 (89255_at) expression change upon IL-13 stimulation: 7
  BAL (69619_at) expression change upon IL-13 stimulation: 2.2
  BCAT1 (72962_at) expression change upon IL-13 stimulation: 3.4
  EPPK1 (86507_at) expression change upon IL-13 stimulation: 3.6
  EPSTI1 (90421_at) expression change upon IL-13 stimulation: 3.4
  FLJ22833 (67329_at) expression change upon IL-13 stimulation: 3.7
  GCNT3 (77751_at) expression change upon IL-13 stimulation: 3.5
  MFHAS1 (87816_g_at) expression change upon IL-13 stimulation: 3.1
  RIG-1 (77749_at) expression change upon IL-13 stimulation: 5.1
  SCYA26 (90189_at) expression change upon IL-13 stimulation: 35.1
  vipirin (84893_at) expression change upon IL-13 stimulation: 6.6
HG-U95E, lot 2, Day 3, AI
  AA199856 (72960_s_at) expression change upon IL-13 stimulation: 18.8
  AA779704 (68562_at) expression change upon IL-13 stimulation: 2.8
  AA806114 (80826_at) expression change upon IL-13 stimulation: 7.2
  AI859144, KIAA1127 (77546_at) expression change upon IL-13 stimulation: 5.5
  BAL (69619_at) expression change upon IL-13 stimulation: 3.1
  BCAT1 (72962_at) expression change upon IL-13 stimulation: 10.5
  EHF (8S090_at) expression change upon IL-13 stimulation: 3.3
  EHF (85092_g_at) expression change upon IL-13 stimulation: 3.3
  EPSTI1 (90421_at) expression change upon IL-13 stimulation: 9.4
  FLJ22833 (67329_at) expression change upon IL-13 stimulation: 6.1
  MASL1 (89651_at) expression change upon IL-13 stimulation: 3.2
  MFHAS1 (87816_g_at) expression change upon IL-13 stimulation: 3.5
  OAS2 (90662_at) expression change upon IL-13 stimulation: 4.1
  RIG-1 (77749_at) expression change upon IL-13 stimulation: 6.4
  RPL4 (80675_at) expression change upon IL-13 stimulation: 2.3
  SCYA26 (90189_at) expression change upon IL-13 stimulation: 16.7
  vipirin (84893_at) expression change upon IL-13 stimulation: 15.4
[3]
  H70665 (67357_at) expression change upon IL-13 stimulation: 2.1
  NIFK (89320_at) expression change upon IL-13 stimulation: 2.1
  TBLR1 (87125_at) expression change upon IL-13 stimulation: 4.4
HG-U95E, lot 2, Day 7
  NIFK (89320_at) expression change upon IL-13 stimulation: 3.4
  SLC1A5 (34759_at) expression change upon IL-13 stimulation: 2.9
  SLC17A5 (88617_at) expression change upon IL-13 stimulation: 2.3
